From US10835533B2, “1 -((3S,4R)-4-(3-fluorophenyl)-1-(2-methoxyethyl)pyrrolidin-3-yl)-3-(4-methyl-3-(2-methylpyrimidin-5-yl)-1-phenyl-1H-pyrazol-5-yl)urea as a TrkA kinase inhibitor” (Array BioPharma Inc., priority 2014, dated 2020)

Assays:
Assay in all cases: KinaseProfiler kinase profiling
Format in all cases: biochemical
Conditions in all cases: 10 μM, ATP near Km
FGFR4 = target: T1, FGFR4 (Homo sapiens, UniProt P22455)
T1 construct: purchased Millipore, Inc. (KinaseProfiler service)
Method in brief: (§1)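 Single test compound screened at 10 μM against each kinase, with ATP near the Km of that kinase. Run in duplicate. Activity is given as percent of control, the mean of both replicates.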

MELK = target: T2, MELK (Homo sapiens, UniProt Q14680)
T2 construct: purchased Millipore, Inc. (KinaseProfiler service)
Method in brief: as §1

MAP4K2 = target: T3, MAP4K2 (Homo sapiens, UniProt Q12851)
T3 construct: purchased Millipore, Inc. (KinaseProfiler service)
Method in brief: as §1

PTK5 = target: T4, PTK5 (Homo sapiens, UniProt P42685)
T4 construct: purchased Millipore, Inc. (KinaseProfiler service)
Method in brief: as §1

AURKA = target: T5, AURKA (Homo sapiens, UniProt O14965)
T5 construct: purchased Millipore, Inc. (KinaseProfiler service)
Method in brief: as §1

EphA8 = target: T6, EphA8 (Homo sapiens, UniProt P29322)
T6 construct: purchased Millipore, Inc. (KinaseProfiler service)
Method in brief: as §1

IKKbeta = target: T7, IKKbeta (Homo sapiens, UniProt O14920)
T7 construct: purchased Millipore, Inc. (KinaseProfiler service)
Method in brief: as §1

CLK3 = target: T8, CLK3 (Homo sapiens, UniProt P49761)
T8 construct: purchased Millipore, Inc. (KinaseProfiler service)
Method in brief: as §1

JAK2 = target: T9, JAK2 (Homo sapiens, UniProt O60674)
T9 construct: purchased Millipore, Inc. (KinaseProfiler service)
Method in brief: as §1

CDK5/p25 = target: T10, CDK5/p25 (Homo sapiens, UniProt Q00535)
T10 construct: purchased Millipore, Inc. (KinaseProfiler service)
Method in brief: as §1

PKCiota = target: T11, PKCiota (Homo sapiens, UniProt P41743)
T11 construct: purchased Millipore, Inc. (KinaseProfiler service)
Method in brief: as §1

PKCepsilon = target: T12, PKCepsilon (Homo sapiens, UniProt Q02156)
T12 construct: purchased Millipore, Inc. (KinaseProfiler service)
T12 sequence (Q02156 whole entry): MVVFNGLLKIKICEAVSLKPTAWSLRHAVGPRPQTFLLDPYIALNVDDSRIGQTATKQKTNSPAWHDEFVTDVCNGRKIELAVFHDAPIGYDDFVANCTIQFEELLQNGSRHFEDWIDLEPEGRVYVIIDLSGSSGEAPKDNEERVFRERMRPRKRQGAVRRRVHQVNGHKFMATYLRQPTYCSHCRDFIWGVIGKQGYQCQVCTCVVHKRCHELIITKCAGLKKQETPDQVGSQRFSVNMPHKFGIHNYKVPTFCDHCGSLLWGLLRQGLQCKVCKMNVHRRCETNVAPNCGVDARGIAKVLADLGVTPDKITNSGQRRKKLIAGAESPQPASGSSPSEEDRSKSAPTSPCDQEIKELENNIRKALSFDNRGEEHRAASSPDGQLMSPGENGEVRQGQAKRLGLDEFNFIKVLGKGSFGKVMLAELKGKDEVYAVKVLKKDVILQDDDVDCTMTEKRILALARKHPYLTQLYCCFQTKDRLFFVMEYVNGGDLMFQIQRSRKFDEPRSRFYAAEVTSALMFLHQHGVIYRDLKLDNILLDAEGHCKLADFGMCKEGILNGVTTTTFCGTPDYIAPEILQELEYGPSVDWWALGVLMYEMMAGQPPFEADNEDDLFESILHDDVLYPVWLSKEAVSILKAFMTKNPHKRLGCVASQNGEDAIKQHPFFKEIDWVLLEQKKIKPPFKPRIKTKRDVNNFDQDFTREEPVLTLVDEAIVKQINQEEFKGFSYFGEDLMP
Method in brief: as §1

Plk2 = target: T13, Plk2 (Homo sapiens, UniProt Q9NYY3)
T13 construct: purchased Millipore, Inc. (KinaseProfiler service)
Method in brief: as §1

ROCK-II = target: T14, ROCK-II (Homo sapiens, UniProt O75116)
T14 construct: purchased Millipore, Inc. (KinaseProfiler service)
T14 sequence (O75116 whole entry): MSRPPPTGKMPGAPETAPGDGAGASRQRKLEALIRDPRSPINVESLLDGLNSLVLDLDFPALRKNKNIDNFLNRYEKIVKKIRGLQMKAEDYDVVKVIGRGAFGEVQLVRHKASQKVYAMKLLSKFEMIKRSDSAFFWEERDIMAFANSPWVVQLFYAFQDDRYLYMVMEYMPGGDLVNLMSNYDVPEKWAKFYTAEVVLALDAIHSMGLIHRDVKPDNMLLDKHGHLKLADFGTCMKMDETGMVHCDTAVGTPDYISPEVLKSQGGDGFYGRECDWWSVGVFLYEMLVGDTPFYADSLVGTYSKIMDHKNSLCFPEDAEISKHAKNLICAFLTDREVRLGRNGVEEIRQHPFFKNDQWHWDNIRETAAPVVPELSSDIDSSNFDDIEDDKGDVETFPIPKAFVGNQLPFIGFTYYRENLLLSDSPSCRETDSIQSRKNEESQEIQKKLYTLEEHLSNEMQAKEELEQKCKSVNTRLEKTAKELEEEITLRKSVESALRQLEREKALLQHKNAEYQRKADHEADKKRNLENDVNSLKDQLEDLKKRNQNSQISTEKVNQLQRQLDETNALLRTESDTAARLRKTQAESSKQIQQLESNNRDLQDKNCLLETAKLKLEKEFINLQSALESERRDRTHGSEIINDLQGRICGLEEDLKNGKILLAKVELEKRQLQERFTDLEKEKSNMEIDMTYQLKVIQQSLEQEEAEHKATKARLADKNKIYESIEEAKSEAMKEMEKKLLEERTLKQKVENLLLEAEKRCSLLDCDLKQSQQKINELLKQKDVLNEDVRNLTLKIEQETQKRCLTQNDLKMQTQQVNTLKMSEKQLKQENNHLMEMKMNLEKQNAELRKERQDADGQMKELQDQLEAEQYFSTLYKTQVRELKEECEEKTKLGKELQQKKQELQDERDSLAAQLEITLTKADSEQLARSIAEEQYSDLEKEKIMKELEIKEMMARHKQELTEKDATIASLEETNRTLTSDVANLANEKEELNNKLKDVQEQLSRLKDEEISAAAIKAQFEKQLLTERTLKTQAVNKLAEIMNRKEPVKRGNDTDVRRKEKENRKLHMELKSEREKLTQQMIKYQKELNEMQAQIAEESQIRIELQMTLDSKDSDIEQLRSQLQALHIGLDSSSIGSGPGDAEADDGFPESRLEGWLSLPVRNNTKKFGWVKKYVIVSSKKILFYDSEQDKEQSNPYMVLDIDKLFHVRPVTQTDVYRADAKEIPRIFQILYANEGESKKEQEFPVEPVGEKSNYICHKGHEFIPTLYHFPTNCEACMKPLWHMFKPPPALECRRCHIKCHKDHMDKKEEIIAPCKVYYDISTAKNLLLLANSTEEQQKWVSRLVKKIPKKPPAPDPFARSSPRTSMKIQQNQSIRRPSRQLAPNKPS
Method in brief: as §1

Flt1 = target: T15, Flt1 (Homo sapiens, UniProt P17948)
T15 construct: purchased Millipore, Inc. (KinaseProfiler service)
Method in brief: as §1

Fer = target: T16, Fer (Homo sapiens, UniProt P16591)
T16 construct: purchased Millipore, Inc. (KinaseProfiler service)
Method in brief: as §1

EphB1 = target: T17, EphB1 (Homo sapiens, UniProt P54762)
T17 construct: purchased Millipore, Inc. (KinaseProfiler service)
T17 sequence (P54762 18-984): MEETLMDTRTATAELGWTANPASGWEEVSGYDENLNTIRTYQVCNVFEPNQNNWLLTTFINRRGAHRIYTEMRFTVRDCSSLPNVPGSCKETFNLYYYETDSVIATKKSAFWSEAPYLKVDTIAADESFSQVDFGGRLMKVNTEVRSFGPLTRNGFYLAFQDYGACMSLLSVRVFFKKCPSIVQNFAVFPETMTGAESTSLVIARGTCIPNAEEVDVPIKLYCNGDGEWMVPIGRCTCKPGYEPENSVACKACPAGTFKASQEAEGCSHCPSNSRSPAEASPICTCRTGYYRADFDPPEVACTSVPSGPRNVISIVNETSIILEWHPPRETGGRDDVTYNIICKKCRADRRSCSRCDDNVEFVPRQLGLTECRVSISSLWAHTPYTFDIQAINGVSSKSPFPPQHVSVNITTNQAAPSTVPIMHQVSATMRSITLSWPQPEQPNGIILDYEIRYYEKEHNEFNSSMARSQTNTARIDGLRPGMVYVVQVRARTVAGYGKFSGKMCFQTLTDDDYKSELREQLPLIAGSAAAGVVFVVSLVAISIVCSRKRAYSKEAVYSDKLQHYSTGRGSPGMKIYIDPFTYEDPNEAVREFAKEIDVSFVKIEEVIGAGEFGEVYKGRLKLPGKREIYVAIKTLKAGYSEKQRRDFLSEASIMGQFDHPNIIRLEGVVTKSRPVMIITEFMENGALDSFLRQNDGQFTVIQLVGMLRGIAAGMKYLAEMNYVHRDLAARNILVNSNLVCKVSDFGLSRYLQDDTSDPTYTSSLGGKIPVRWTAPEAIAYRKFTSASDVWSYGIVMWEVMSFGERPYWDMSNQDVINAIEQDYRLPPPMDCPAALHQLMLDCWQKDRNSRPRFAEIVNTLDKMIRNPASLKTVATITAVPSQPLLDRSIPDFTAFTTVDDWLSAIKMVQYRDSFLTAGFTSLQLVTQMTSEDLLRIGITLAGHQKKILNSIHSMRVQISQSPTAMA
Method in brief: as §1

Rsk2 = target: T18, Rsk2 (Homo sapiens, UniProt P51812)
T18 construct: purchased Millipore, Inc. (KinaseProfiler service)
Method in brief: as §1

MAPKAP-K2 = target: T19, MAPKAP-K2 (Homo sapiens, UniProt P49137)
T19 construct: purchased Millipore, Inc. (KinaseProfiler service)
Method in brief: as §1

TAK1-TAB1 = target: T20, TAK1-TAB1 (Homo sapiens, UniProt O43318)
T20 construct: purchased Millipore, Inc. (KinaseProfiler service)
T20 sequence (O43318 with tags, fused parts or gaps limits assumed): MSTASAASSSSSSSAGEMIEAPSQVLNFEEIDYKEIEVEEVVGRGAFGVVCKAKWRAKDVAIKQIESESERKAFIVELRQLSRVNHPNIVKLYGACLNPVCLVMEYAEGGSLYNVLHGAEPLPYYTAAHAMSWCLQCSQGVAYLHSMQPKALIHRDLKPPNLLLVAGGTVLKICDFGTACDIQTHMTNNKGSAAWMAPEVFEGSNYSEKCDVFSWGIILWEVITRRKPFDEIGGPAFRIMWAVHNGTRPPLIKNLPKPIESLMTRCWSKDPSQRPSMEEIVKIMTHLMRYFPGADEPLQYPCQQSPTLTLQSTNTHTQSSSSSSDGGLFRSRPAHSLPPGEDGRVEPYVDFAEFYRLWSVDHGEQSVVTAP
Method in brief: as §1

ALK4 = target: T21, ALK4 (Homo sapiens, UniProt P36896)
T21 construct: purchased Millipore, Inc. (KinaseProfiler service)
T21 sequence (P36896 24-505): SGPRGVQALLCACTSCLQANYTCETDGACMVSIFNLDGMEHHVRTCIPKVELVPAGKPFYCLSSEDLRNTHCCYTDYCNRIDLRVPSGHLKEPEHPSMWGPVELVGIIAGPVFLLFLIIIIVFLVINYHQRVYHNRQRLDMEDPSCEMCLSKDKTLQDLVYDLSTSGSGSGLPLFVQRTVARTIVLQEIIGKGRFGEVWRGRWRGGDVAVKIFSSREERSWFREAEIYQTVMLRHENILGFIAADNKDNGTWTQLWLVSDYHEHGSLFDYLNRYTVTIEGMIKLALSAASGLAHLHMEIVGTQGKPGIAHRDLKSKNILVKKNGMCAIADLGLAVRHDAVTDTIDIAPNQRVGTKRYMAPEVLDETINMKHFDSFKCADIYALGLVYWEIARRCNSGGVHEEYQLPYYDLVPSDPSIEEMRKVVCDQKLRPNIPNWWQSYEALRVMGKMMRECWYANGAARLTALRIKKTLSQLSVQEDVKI
Method in brief: as §1

TAO1 = target: T22, TAO1 (Homo sapiens, UniProt Q7L7X3)
T22 construct: purchased Millipore, Inc. (KinaseProfiler service)
Method in brief: as §1

CHK1 = target: T23, CHK1 (Homo sapiens, UniProt O14757)
T23 construct: purchased Millipore, Inc. (KinaseProfiler service)
Method in brief: as §1

PASK = target: T24, PASK (Homo sapiens, UniProt Q96RG2)
T24 construct: purchased Millipore, Inc. (KinaseProfiler service)
Method in brief: as §1

CDK9/cyclinT1 = target: T25, CDK9/cyclinT1 (Homo sapiens, UniProt P50750)
T25 construct: purchased Millipore, Inc. (KinaseProfiler service)
Method in brief: as §1

DAPK2 = target: T26, DAPK2 (Homo sapiens, UniProt Q9UIK4)
T26 construct: purchased Millipore, Inc. (KinaseProfiler service)
Method in brief: as §1

mTOR/FKBP12 = target: T27, mTOR/FKBP12 (Homo sapiens, UniProt P42345)
T27 construct: purchased Millipore, Inc. (KinaseProfiler service)
Method in brief: as §1

RIPK2 = target: T28, RIPK2 (Homo sapiens, UniProt O43353)
T28 construct: purchased Millipore, Inc. (KinaseProfiler service)
Method in brief: as §1

WNK2 = target: T29, WNK2 (Homo sapiens, UniProt Q9Y3S1)
T29 construct: purchased Millipore, Inc. (KinaseProfiler service)
Method in brief: as §1

Src = target: T30, Src (Homo sapiens, UniProt P12931)
T30 construct: purchased Millipore, Inc. (KinaseProfiler service)
T30 sequence (P12931 whole entry): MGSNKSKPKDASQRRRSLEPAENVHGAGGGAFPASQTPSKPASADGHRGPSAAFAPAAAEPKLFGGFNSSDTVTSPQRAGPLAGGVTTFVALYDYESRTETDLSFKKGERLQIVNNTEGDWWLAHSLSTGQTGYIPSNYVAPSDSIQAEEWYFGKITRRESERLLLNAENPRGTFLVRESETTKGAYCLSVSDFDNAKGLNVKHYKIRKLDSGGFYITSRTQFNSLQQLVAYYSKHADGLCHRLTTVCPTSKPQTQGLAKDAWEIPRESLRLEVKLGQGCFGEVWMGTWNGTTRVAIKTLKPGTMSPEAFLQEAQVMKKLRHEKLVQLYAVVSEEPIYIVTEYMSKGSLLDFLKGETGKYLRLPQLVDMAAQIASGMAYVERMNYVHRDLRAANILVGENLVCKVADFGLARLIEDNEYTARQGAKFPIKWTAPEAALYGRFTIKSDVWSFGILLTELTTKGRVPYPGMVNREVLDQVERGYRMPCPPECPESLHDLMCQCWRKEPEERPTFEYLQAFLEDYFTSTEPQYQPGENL
Method in brief: as §1

EphB3 = target: T31, EphB3 (Homo sapiens, UniProt P54753)
T31 construct: purchased Millipore, Inc. (KinaseProfiler service)
Method in brief: as §1

DMPK = target: T32, DMPK (Homo sapiens, UniProt Q09013)
T32 construct: purchased Millipore, Inc. (KinaseProfiler service)
Method in brief: as §1

FGFR3 = target: T33, FGFR3 (Homo sapiens, UniProt P22607)
T33 construct: purchased Millipore, Inc. (KinaseProfiler service)
Method in brief: as §1

NEK3 = target: T34, NEK3 (Homo sapiens, UniProt P51956)
T34 construct: purchased Millipore, Inc. (KinaseProfiler service)
Method in brief: as §1

CK1gamma3 = target: T35, CK1gamma3 (Homo sapiens, UniProt Q9Y6M4)
T35 construct: purchased Millipore, Inc. (KinaseProfiler service)
Method in brief: as §1

IRAK1 = target: T36, IRAK1 (Homo sapiens, UniProt P51617)
T36 construct: purchased Millipore, Inc. (KinaseProfiler service)
Method in brief: as §1

Fyn = target: T37, Fyn (Homo sapiens, UniProt P06241)
T37 construct: purchased Millipore, Inc. (KinaseProfiler service)
T37 sequence (P06241 whole entry): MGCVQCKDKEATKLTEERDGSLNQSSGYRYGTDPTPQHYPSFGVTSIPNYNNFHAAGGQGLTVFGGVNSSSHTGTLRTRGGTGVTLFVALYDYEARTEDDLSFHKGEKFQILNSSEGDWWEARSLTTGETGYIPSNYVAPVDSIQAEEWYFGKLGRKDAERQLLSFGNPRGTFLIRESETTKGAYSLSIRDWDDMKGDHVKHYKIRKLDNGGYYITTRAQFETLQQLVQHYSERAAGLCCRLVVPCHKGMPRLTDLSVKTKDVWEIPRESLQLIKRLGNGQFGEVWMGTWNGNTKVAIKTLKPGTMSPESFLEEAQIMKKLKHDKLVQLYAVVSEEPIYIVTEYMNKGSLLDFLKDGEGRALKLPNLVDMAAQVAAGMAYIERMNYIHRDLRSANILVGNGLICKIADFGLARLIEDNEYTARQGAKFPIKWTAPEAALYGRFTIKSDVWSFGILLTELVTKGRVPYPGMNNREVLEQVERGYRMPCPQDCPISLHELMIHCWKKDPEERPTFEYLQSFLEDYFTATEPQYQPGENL
Method in brief: as §1

EphA5 = target: T38, EphA5 (Homo sapiens, UniProt P54756)
T38 construct: purchased Millipore, Inc. (KinaseProfiler service)
Method in brief: as §1

NLK = target: T39, NLK (Homo sapiens, UniProt Q9UBE8)
T39 construct: purchased Millipore, Inc. (KinaseProfiler service)
Method in brief: as §1

CDK1/cyclinB = target: T40, CDK1/cyclinB (Homo sapiens, UniProt P06493)
T40 construct: purchased Millipore, Inc. (KinaseProfiler service)
Method in brief: as §1

EphA7 = target: T41, EphA7 (Homo sapiens, UniProt Q15375)
T41 construct: purchased Millipore, Inc. (KinaseProfiler service)
Method in brief: as §1

COCCN1C[C@@H](NC(=O)Nc2c(C)c(-c3cnc(C)nc3)nn2-c2ccccc2)[C@H](c2cccc(F)c2)C1 [Compound 1, 1-((3S,4R)-4-(3-fluorophenyl)-1-(2-methoxyethyl)pyrrolidin-3-yl)-3-(4-methyl-3-(2-methylpyrimidin-5-yl)-1-phenyl-1H-pyrazol-5-yl)urea]
Avg POC (FGFR4): 105 POC | Avg POC (MELK): 105.5 POC | Avg POC (MAP4K2): 101 POC | Avg POC (PTK5): 105 POC | Avg POC (AURKA): 115 POC | Avg POC (EphA8): 110 POC | Avg POC (IKKbeta): 104.5 POC | Avg POC (CLK3): 94.5 POC | Avg POC (JAK2): 126 POC | Avg POC (CDK5/p25): 115 POC | Avg POC (PKCiota): 91 POC | Avg POC (PKCepsilon): 101.5 POC | Avg POC (Plk2): 101 POC | Avg POC (ROCK-II): 105.5 POC | Avg POC (Flt1): 97 POC | Avg POC (Fer): 103.5 POC | Avg POC (EphB1): 105.5 POC | Avg POC (Rsk2): 93 POC | Avg POC (MAPKAP-K2): 115 POC | Avg POC (TAK1-TAB1): 101.5 POC | Avg POC (ALK4): 106.5 POC | Avg POC (TAO1): 96 POC | Avg POC (CHK1): 109 POC | Avg POC (PASK): 137.5 POC | Avg POC (CDK9/cyclinT1): 112 POC | Avg POC (DAPK2): 97 POC | Avg POC (mTOR/FKBP12): 105.5 POC | Avg POC (RIPK2): 90.5 POC | Avg POC (WNK2): 92.5 POC | Avg POC (Src): 120 POC | Avg POC (EphB3): 89.5 POC | Avg POC (DMPK): 98.5 POC | Avg POC (FGFR3): 108 POC | Avg POC (NEK3): 104.5 POC | Avg POC (CK1gamma3): 104.5 POC | Avg POC (IRAK1): 103 POC | Avg POC (Fyn): 96.5 POC | Avg POC (EphA5): 109.5 POC | Avg POC (NLK): 94.5 POC | Avg POC (CDK1/cyclinB): 108 POC | Avg POC (EphA7): 109 POC
